Source: patent publication US20050239733A1, “Sequence requirements for inhibitory oligonucleotides” (Coley Pharmaceutical GmbH, priority 2003, published 2005)

Legend:
[1] = test system: human PBMC; test: Inhibition of CpG ODN 2395-induced IFN-α secretion by human PBMC; format: cell-based; conditions: FIG. 9; 0.5 μM CpG ODN 2395, increasing ODN, 24 h
Description: In this set of experiments human PBMC were isolated from human blood and incubated in the presence of 0.5 μM CpG ODN 2395 ([…]; SEQ ID NO:30) and increasing concentrations of inhibitory ODN. CpG ODN 2395 induces high amounts of IFN-α in human PBMC through TLR9-mediated signaling. The secreted amount of IFN-α induced by CpG ODN 2395 after 24 h was set to 100%.

[2] = target: T1, human TLR8 (Homo sapiens, UniProt Q9NR97); test: Inhibition of R-848-mediated NF-κB-luciferase activation in hTLR8-LUC-293 cells; format: cell-based; conditions: general statement 'found according to the present invention'; conditions not given
T1 construct: expressed in transfected cells
T1 sequence (Q9NR97 27-1041): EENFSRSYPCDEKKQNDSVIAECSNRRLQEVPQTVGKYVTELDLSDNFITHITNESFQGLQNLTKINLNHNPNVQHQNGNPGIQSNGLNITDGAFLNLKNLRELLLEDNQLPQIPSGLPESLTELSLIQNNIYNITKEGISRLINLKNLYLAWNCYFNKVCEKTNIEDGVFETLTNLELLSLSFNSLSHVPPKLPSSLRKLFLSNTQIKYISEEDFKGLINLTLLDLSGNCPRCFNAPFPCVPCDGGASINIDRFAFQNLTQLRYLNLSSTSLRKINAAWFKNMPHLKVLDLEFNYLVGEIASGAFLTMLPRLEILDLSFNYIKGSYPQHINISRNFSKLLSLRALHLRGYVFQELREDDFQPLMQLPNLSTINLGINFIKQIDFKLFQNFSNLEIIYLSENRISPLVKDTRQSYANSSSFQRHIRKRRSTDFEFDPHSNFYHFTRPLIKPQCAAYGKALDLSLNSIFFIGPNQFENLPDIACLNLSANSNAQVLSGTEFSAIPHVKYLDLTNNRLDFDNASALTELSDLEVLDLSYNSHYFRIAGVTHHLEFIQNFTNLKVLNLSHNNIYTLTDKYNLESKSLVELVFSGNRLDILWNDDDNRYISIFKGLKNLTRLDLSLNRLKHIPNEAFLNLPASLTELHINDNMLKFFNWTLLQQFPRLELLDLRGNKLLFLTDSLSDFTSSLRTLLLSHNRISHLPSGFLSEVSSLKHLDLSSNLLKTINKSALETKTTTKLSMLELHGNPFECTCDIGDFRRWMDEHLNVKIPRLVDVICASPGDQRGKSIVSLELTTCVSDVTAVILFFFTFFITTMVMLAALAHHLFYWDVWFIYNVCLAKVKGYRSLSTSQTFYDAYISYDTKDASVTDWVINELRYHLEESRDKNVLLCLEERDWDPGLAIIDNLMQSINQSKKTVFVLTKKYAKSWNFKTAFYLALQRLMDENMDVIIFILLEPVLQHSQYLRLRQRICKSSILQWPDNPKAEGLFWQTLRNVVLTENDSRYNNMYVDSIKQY
Description: The previous examples describe the ability of certain inhibitory ODN to inhibit activation of signal transduction mediated by human Toll-like receptor 9 (hTLR9). […] The assay system involved stimulating hTLR8-LUC-293 cells with the TLR8 ligand, R-848 (Resiquimod; Jurk M et al. (2002) Nat Immunol 3:499) in the presence and absence of ODN and comparing the induction of luciferase activity in the absence of ODN to luciferase activity in the presence of ODN.
Cells were assayed for luciferase activity 16 h later. Results were calculated as fold induction above medium background.
Luciferase activity was assayed after 16 h.
hTLR8-LUC-293 cells were incubated with 50 μM R-848 in the presence of increasing concentrations of the following ODN: ODN 2088, D13GT (whererin D is dSpacer), GTN13, N6GTN7, random 15-mer N15, N13GT, and the dinucleotide GT. Luciferase activity was assayed after 16 h. Luciferase activity of R-848 without any ODN was set to 100% (without correction for medium background, i.e. background activity of medium remained at approx. 17%).
Luciferase activity was assayed after 16 h. Luciferase activity of R-848 without any ODN was set to 100% (without correction for medium background, i.e., background activity of medium remained at approx. 17%).
In yet a further set of experiments hTLR8-LUC-293 cells were incubated with 50 μM R-848 in the presence of increasing amounts of different dinucleotides (GT, ODN 603; TG, ODN 688; GG, ODN 689; GU, ODN 690; UG, ODN 691; AT, ODN 692; and TT, ODN 693). Luciferase was assayed after 16 h. Luciferase activity of R-848 without any ODN was set to 100% and remaining R-848-mediated NF-κB activation in the presence of dinucleotides or ODN 2088 was calculated. Medium background was 17% in this set of experiments.
hTLR-LUC-293 cells (expressing the respective humanTLR7, TLR8, or TLR9) were incubated with constant amounts of TLR-agonist (for hTLR7: 2 μM R-848, for hTLR8: 50 μM R-848, and for hTLR9: 0.156 μM CpG ODN 2006) and increasing amounts of TLR-antagonist. […] To compare data for different TLRs, percent remaining activity of agonist was plotted against the log of molar ratio of antagonist to agonist (e.g., for hTLR8: 50 μM R-848 and 5 μM ODN, the plotted ratio is 10^−1). Used ODN concentrations were: for hTLR7 and hTLR8, 5 μM, 0.5 μM, 0.05 μM, and 0.005 μM, and for hTLR9, 2.5 μM, 0.156 μM, 0.0098 μM and 0.00061 μM.

[3] = target: T2, human TLR9 (Homo sapiens, UniProt Q9NR96); test: Inhibition of CpG ODN 2006-mediated NF-κB-luciferase activation in hTLR9-LUC-293 cells; conditions: for Percent 2006 Activity: equimolar 0.156 μM CpG ODN 2006 and inhibitory ODN; for inhibitory for TLR9: general statement 'found according to the present invention', conditions not given
T2 sequence (Q9NR96 26-1032): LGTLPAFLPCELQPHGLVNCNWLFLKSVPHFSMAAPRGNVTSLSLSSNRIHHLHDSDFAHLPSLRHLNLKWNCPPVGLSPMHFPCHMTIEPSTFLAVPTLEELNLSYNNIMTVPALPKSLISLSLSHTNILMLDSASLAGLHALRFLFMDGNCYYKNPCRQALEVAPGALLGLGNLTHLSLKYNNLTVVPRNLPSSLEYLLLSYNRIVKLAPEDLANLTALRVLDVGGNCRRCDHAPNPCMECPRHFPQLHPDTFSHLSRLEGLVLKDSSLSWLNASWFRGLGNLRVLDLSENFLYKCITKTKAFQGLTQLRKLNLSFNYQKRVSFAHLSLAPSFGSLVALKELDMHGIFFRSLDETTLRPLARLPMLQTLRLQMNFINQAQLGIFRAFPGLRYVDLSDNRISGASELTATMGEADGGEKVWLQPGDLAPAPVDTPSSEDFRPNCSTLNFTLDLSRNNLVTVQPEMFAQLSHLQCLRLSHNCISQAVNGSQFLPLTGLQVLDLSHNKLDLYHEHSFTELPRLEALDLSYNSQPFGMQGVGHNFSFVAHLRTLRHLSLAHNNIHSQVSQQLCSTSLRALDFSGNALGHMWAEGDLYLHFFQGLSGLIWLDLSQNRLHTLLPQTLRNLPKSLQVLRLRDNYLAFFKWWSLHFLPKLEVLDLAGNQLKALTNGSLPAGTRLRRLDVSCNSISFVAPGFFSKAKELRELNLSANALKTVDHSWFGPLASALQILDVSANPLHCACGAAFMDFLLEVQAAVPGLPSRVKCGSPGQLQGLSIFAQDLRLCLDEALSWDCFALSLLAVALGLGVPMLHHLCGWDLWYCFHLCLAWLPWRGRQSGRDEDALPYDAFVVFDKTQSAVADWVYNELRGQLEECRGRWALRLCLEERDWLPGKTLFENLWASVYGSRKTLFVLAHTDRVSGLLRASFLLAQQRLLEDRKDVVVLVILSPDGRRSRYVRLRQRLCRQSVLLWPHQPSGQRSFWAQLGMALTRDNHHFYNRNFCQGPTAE

[4] = Table 2 (5′ CC replaced by other dinucleotides)

Sequence	inhibitory for TLR8 [2]	inhibitory for TLR9 [3]	Percent 2006 Activity [3, 4]	also measured
CCTTGTTGGG (DNA, backbone and methylation of C not given here) [ODN 223]	–	–	–	inhibition of IFN-α production in human PBMC, in words [1]: inhibited
NNNNNNNNNNNNNGT [ODN 467]	–	–	–	inhibition of IFN-α production in human PBMC, in words [1]: not
TCCGGGCGGGGAAGT (DNA, backbone and methylation of C not given here) [ODN 156]	inhibitory	inhibitory	–	Percent 2006 Activity ([3]; Table 3 (nucleotides flanking 5′ CC, truncations)): 10%
TCCTAGCGGGGAAGT (DNA, backbone and methylation of C not given here) [SEQ ID NO:10]	inhibitory	inhibitory	–	–
TCCTAGCGGGGGCGTCCTAT (chemistry not given here) [SEQ ID NO:12]	not for TLR8	inhibitory	–	–
TCCTGGAGGGGAAGT (DNA, backbone and methylation of C not given here) [ODN 2114]	inhibitory	inhibitory	–	–
TCCTGTGTGTGTGTGTGTCGGGGAAGT (DNA, backbone and methylation of C not given here) [ODN 497]	inhibitory	inhibitory	–	Percent 2006 Activity ([3]; Table 1 (length b / Spacer 18 variants)): 28%
TGATGGCGGGGAAGT (listed as DNA, chemistry not given here) [ODN 444]	inhibitory	–	96%	–
TGCTGGCGGGGAAGT (listed as DNA, chemistry not given here) [ODN 443]	inhibitory	–	91%	–
TGTTGGCGGGGAAGT (listed as DNA, chemistry not given here) [ODN 445]	inhibitory	–	97%	–
